Key:
[1] = test system: elastase-induced lung injury; experiment: Rabbit model of elastase-induced lung injury: lung histology (alveolar destruction, airway subepithelial fibrotic changes); type: in vivo
From the text: Rabbits were divided into three groups (n=10 animals/group). Two hundred U/kg of porcine pancreatic elastase (PPE) was intratracheally administered into the lungs of the animals in the Vehicle and the Compound A group. The animals in the Sham group was intratracheally administered the same volume of saline instead of PPE. The rabbits were dissected 28 days after PPE administration. The lung tissue of each rabbit was fixed in formalin to prepare histological sections thereof. Two hours prior to the administration of PPE, Vehicle (0.5% tragacanth) or Compound A (10 mg/kg) was orally administered to the rabbits in the Vehicle and the Compound A group, respectively; from the next day, the oral administration of Vehicle or Compound A was continued once a day, 5 days a week until the end of the experiment. The histological sections were immunohistochemically stained using respective antibodies against MMP-2 or MMP-9. Then, under the microscope, the extent of MMP-2 and MMP-9 expression was evaluated, and expressed as a score. The extent of the fibrotic changes in the airway subepithelial region and the extent of alveolar destruction were also observed.

[2] = test system: bleomycin- or asbestos-induced lung fibrosis; conditions: bleomycin- or asbestos-induced lung fibrosis animal model; cited from earlier work
[3] = 28 days after PPE, 10 mg/kg oral, vs. Vehicle group

SMILES | Alveolar Mean Linear Intercept (Average ± Standard deviation) ([1]; 28 days after PPE 200 U/kg intratracheal, 10 mg/kg oral once a day, 5 days a week, p<0.01 vs. Vehicle) | alveolar destruction [1, 3] | thickening of the airway subepithelial layer resulted from fibrotic changes [1, 3] | increase in MMP activity and the number of white blood cell infiltrated in the bronchoalveolar lavage fluid [2] | lung fibrosis in the histological and biochemical aspects [2]
CCOc1ccc(-c2nc(-c3cccc(C(=O)O)n3)cs2)cc1OCC [Compound A, 6-[2-(3,4-diethoxyphenyl)thiazol-4-yl]pyridine-2-carboxylic acid] | 72.8 ± 2.6 μm ## | significantly suppressed | alleviated | – | –
CNC(=O)[C@H](Cc1c[nH]c2ccccc12)NC(=O)[C@@H](CC(=O)NO)CC(C)C [GM6001] | – | – | – | suppressed | suppressed

From patent US20110054179A1, “MMP-2 AND/OR MMP-9 INHIBITOR” (priority 2008, published 2011)
